Values quoted from earlier work, collected in patent publication US7250416B2, “Azacytosine analogs and derivatives” (SuperGen, Inc., priority 2005, dated 2007).
Where two headings read alike, the source gives them in different places.

Columns and labels:
[1] = for steady-state plasma concentration: estimated
[2] = biological target: T1, cytidine deaminase (Homo sapiens, UniProt P32320); conditions: by cytidine deaminase at equal concentrations
T1 construct: the enzyme purified from human liver; from tissue; host or cells: human liver
T1 sequence (P32320 whole entry): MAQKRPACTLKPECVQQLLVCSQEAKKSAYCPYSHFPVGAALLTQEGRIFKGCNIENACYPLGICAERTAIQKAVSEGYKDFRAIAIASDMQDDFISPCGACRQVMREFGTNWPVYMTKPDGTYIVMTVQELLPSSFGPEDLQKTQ

| time of hydrolysis to the amidino-urea derivative (1h) (alkaline medium) | stability in aqueous media (aqueous media, hydrolytic degradation) | maximum infusion time of reconstituted solution (reconstituted aqueous solution stored in the refrigerator for less than 7 hr) | steady-state plasma concentration ([1]; 6-hour infusion of 100 mg/m^2) | range of concentrations during infusion ([1]; 600-mg/m^2 infusion) | half-life after discontinuing the infusion ([1]; humans) | total urinary excretion, % of the administered dose ([1]; humans) | volume of distribution ([1]; humans) | terminal half-life ([1]; humans, measured by bioassay) | steady-state plasma concentration ([1]; infusion rate of 1 mg/kg/h) | plasma concentration ([1]; infusion times of 40–60 hours, infusion rate 1 mg/kg/h) | penetration into the cerebrospinal fluid, % of the plasma concentration ([1]; man, end of a 36-hour intravenous infusion) | plasma concentration ([1]; patients, 100 mg/m^2 as a 3-hour infusion) | rate of deamination relative to that of decitabine [2] | SMILES |
| --- | --- | --- | --- | --- | --- | --- | --- | --- | --- | --- | --- | --- | --- | --- |
| within a few minutes | unstable | ≤ 3 h | 0.31 to 0.39 µg/mL | 0.41 to 16 µg/mL | 12 to 20 min | less than 1% | about 4.6 L/kg | 10 to 35 min | 0.2 to 0.5 µg/mL | 430 to 760 ng/mL | 14–21% | about 0.4 μg/ml |  | Nc1ncn([C@H]2C[C@H](O)[C@@H](CO)O2)c(=O)n1 [decitabine, 5-aza-2′-deoxycytidine] |
|  |  |  |  |  |  |  |  |  |  |  |  |  | about 6 fold | Nc1ccn([C@H]2C[C@H](O)[C@@H](CO)O2)c(=O)n1 [deoxycytidine, 2′-deoxycytidine] |
